Molecules are shown by their SMILES. Several values for one entry are separate records, joined by “and”; a condition that tells them apart may be missing. Identical values can stand only once.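 In this assay, cells in 96-well plates receive the compound at five concentrations for 48 hours. Endpoints are linearly interpolated between the surrounding concentrations. Abbreviation: GI50, concentration required for 50% inhibition of growth. TGI denotes the concentration required for complete inhibition of growth.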

The first test concerns NCI-H23 lung. As to the kind of experiment: growth of human tumour cells (NCI), 48 h.
For the compound `Nc1nccc(-c2c(-c3ccc(F)cc3)nn3cc(C(F)(F)F)ccc23)n1`, the GI50 is > 25 µM and the TGI is > 25 µM.
Take `O=C(CCCC(=O)Nc1ccc(Cl)cc1Cl)CC(=O)c1ccc2ccccc2c1`: the TGI is > 100 µM.

In another test the test system is U251 CNS. Description: growth of human tumour cells (NCI), 48 h.
The compound `COC(=O)C1=C(C(=O)OC)C2(c3ccccc3)OC1(c1ccccc1)c1cc3ccccc3cc12` came in with a TGI of 18.8 µM.
With `CC1NOC(=O)C1N=Nc1ccc(Cl)cc1Cl` (stereo not drawn), the TGI is 38.5 µM.
With `Cc1cc(Cl)nc(N(CCNc2ccnc3cc(Cl)ccc23)Cc2ccco2)n1`, the GI50 is 1.64 µM and the TGI stood at 3.09 µM.
In the case of `CCCCCCCCCCCC[C@@H](O)[C@H]1CC[C@H]([C@H](O)CC[C@H](O)[C@@H]2CC[C@@H](CCCCCCCC3=C[C@H](C)OC3=O)O2)O1`, the GI50 is 8.63 µM and the TGI is > 50 µM.
Taken in the same sequence, the figures for `O=C(c1cccs1)c1c(C(F)(F)F)n([O-])c2cc(Cl)c(Cl)cc2[n+]1=O` were 0.269 µM and 1.66 µM.
Consider `CCOC(=O)/C(=C/c1ccccn1)C(=O)c1ccccc1`, for which the TGI stood at 27.4 µM.
`C=CCN(CC=C)C(=O)c1cc(C)nc2c1c(=O)n(-c1ccccc1)c(=O)n2CCCN1CCN(c2ccccc2OC)CC1`: the GI50 was > 50 µM and the TGI is > 50 µM.
For the compound `COc1cc(-c2nccc3[nH]c(-c4ccc5cc[nH]c5c4)nc23)cc(OC)c1OC`, the GI50 was < 0.01 µM and the TGI came out at 1.85 µM.
Taken in the same sequence, the figures for `COCCOC1=C(Cl)C(=O)c2ccccc2C1=O` were 3.14 µM and 10 µM.
As to `CCN(CC)c1ccc2nc3ccc(=[N+](CC)CC)cc-3oc2c1`, the GI50 was 0.119 µM and the TGI is > 100 µM.
Taken in the same sequence, the figures for `CN1CCN(c2c(F)cc(NC3=C(Cl)C(=O)c4ncccc4C3=O)cc2F)CC1` were 15 µM and 31.7 µM.
For `COc1cc2nnc3c4cccnc4[nH]c3c2cc1OC`, the GI50 was 1.66 µM and 0.918 µM.
Take `O=NN(CCCl)C(=O)NC1CCC(CC(=O)O)CC1` (stereo not drawn): the TGI was > 100 µM.
On the same count and under the same terms, next, `NNC(=O)C(=O)NN=C(C(Cl)(Cl)CO)C(Cl)(Cl)CO`: 53.2 µM; `CCOC(=O)/C(=C\c1cccc(C)c1)C(C)=O`: 26.2 µM; `COc1ccc2ccccc2c1C1=NC(C)(C)CO1`: > 100 µM.
As to `COC12C(COC(=O)NCCO)C3=C(C(=O)C(C)=C(N)C3=O)N1CC1NC12` (stereo not drawn), the GI50 was 45.4 µM.
`Nc1nccc(-c2c(-c3ccc(F)cc3)nn3cc(C(F)(F)F)ccc23)n1`: the GI50 is > 25 µM and the TGI was > 25 µM.
Regarding `O=C(CCCC(=O)Nc1ccc(Cl)cc1Cl)CC(=O)c1ccc2ccccc2c1`, the TGI was > 100 µM.

The subject of another test is HCT-15 colon. As to the kind of experiment: growth of human tumour cells (NCI), 48 h.
In the case of `COC(=O)C1=C(C(=O)OC)C2(c3ccccc3)OC1(c1ccccc1)c1cc3ccccc3cc12`, the TGI amounted to 3.88 µM.
Same read-out and setting: under `CC1NOC(=O)C1N=Nc1ccc(Cl)cc1Cl` (stereo not drawn) stands 38.3 µM.
Consider `Cc1cc(Cl)nc(N(CCNc2ccnc3cc(Cl)ccc23)Cc2ccco2)n1`, for which the GI50 was 1.61 µM and the TGI was 3.69 µM.
Taken in the same sequence, the figures for `CCCCCCCCCCCC[C@@H](O)[C@H]1CC[C@H]([C@H](O)CC[C@H](O)[C@@H]2CC[C@@H](CCCCCCCC3=C[C@H](C)OC3=O)O2)O1` were 5.07 µM and > 50 µM.
Taken in the same sequence, the figures for `O=C(c1cccs1)c1c(C(F)(F)F)n([O-])c2cc(Cl)c(Cl)cc2[n+]1=O` were 0.286 µM and 0.808 µM.
Compound `CCOC(=O)/C(=C/c1ccccn1)C(=O)c1ccccc1` gave a TGI of 29.3 µM.
For the compound `C=CCN(CC=C)C(=O)c1cc(C)nc2c1c(=O)n(-c1ccccc1)c(=O)n2CCCN1CCN(c2ccccc2OC)CC1`, the GI50 is > 50 µM and the TGI is > 50 µM.
As to `COc1cc(-c2nccc3[nH]c(-c4ccc5cc[nH]c5c4)nc23)cc(OC)c1OC`, the GI50 was < 0.01 µM and the TGI came out at 1.31 µM.
Taken in the same sequence, the figures for `COCCOC1=C(Cl)C(=O)c2ccccc2C1=O` were 2.88 µM and 9.65 µM.
Taken in the same sequence, the figures for `CCN(CC)c1ccc2nc3ccc(=[N+](CC)CC)cc-3oc2c1` were 1.49 µM and > 64.8 µM.
Taken in the same sequence, the figures for `CN1CCN(c2c(F)cc(NC3=C(Cl)C(=O)c4ncccc4C3=O)cc2F)CC1` were 1.82 µM and 4.09 µM.
For `COc1cc2nnc3c4cccnc4[nH]c3c2cc1OC`, the GI50 was 2.3 µM and 1.43 µM.
For the compound `O=NN(CCCl)C(=O)NC1CCC(CC(=O)O)CC1` (stereo not drawn), the TGI is > 100 µM.
The same measure, in the same setting: next, `NNC(=O)C(=O)NN=C(C(Cl)(Cl)CO)C(Cl)(Cl)CO`: 75.5 µM; `CCOC(=O)/C(=C\c1cccc(C)c1)C(C)=O`: 38.9 µM; `COc1ccc2ccccc2c1C1=NC(C)(C)CO1`: > 100 µM.
The same measure, in the same setting: under `COC12C(COC(=O)NCCO)C3=C(C(=O)C(C)=C(N)C3=O)N1CC1NC12` (stereo not drawn) stands > 264 µM.
As for `Nc1nccc(-c2c(-c3ccc(F)cc3)nn3cc(C(F)(F)F)ccc23)n1`, the GI50 was > 25 µM and the TGI was > 25 µM.
Consider `O=C(CCCC(=O)Nc1ccc(Cl)cc1Cl)CC(=O)c1ccc2ccccc2c1`, for which the TGI was > 100 µM.

The next test deals with MALME-3M melanoma. As to the kind of experiment: growth of human tumour cells (NCI), 48 h.
For the compound `COC(=O)C1=C(C(=O)OC)C2(c3ccccc3)OC1(c1ccccc1)c1cc3ccccc3cc12`, the TGI is 3.19 µM.
Still for that read-out and setting: under `CC1NOC(=O)C1N=Nc1ccc(Cl)cc1Cl` (stereo not drawn) stands 56.8 µM.
Consider `Cc1cc(Cl)nc(N(CCNc2ccnc3cc(Cl)ccc23)Cc2ccco2)n1`, for which the GI50 was 1.96 µM and the TGI is 3.57 µM.
As for `CCCCCCCCCCCC[C@@H](O)[C@H]1CC[C@H]([C@H](O)CC[C@H](O)[C@@H]2CC[C@@H](CCCCCCCC3=C[C@H](C)OC3=O)O2)O1`, the TGI is > 50 µM.
Turning to `O=C(c1cccs1)c1c(C(F)(F)F)n([O-])c2cc(Cl)c(Cl)cc2[n+]1=O`, the GI50 was 1.23 µM and the TGI was 2.65 µM.
The compound `CCOC(=O)/C(=C/c1ccccn1)C(=O)c1ccccc1` came in with a TGI of 27.3 µM.
As for `C=CCN(CC=C)C(=O)c1cc(C)nc2c1c(=O)n(-c1ccccc1)c(=O)n2CCCN1CCN(c2ccccc2OC)CC1`, the GI50 is > 50 µM and the TGI was > 50 µM.
`COc1cc(-c2nccc3[nH]c(-c4ccc5cc[nH]c5c4)nc23)cc(OC)c1OC`: the GI50 is 1.29 µM and the TGI came out at 3.2 µM.
With `COCCOC1=C(Cl)C(=O)c2ccccc2C1=O`, the GI50 was 3.08 µM and the TGI was 13.4 µM.

For the origin of these results see PubChem BioAssay (NCI).
